{"source": "patent US11102978B2", "about": "“Herbicide combination” (priority 2016, dated 2021)", "format_in_all_cases": "in vivo", "key": {"[1]": {"system": "weeds in general (TTTTT)", "assay": "Field trial, control of weeds in general in wheat", "conditions": "in Triticum aesti, dose 50 g + 4 g (bensulfuron methyl + metsulfuron methyl); for % Weed control TTTTT, Actual: 12 DAA", "description": "(§1) In the Colby method, the expected (or predicted) response of a combination of herbicides is calculated by taking the product of the observed response for each individual component of the combination when applied alone divided by 100 and subtracting this value from the sum of the observed response for each component when applied alone. An unexpected enhancement in efficacy of the combination is then determined by comparing the observed response of the combination to the expected (or predicted) response as calculated from the observed response of each individual component alone. If the observed response of the combination is greater than the expected (or predicted) response, or stated conversely, if the difference between the observed and expected response is greater than zero, then the combination is said to be synergistic or unexpectedly effective.\n(§2) The trial was carried out in Randomized Complete Block (RCB) method, all field trials were conducted using this method. Each trial were replicated four times and conducted under GEP guidelines. Application volumes were varied for each mixture."}, "[2]": {"system": "Galium aparine (Weed code—GALAP)", "assay": "Field trial, weed control of Galium aparine in wheat", "conditions": "in Triticum aesti, 16 DAA, dose 0.08 g (bensulfuron methyl + metsulfuron methyl)", "description": "as §1, §2"}, "[3]": {"system": "Papaver rhoeas (weed code—PAPRH)", "assay": "Field trial, weed control of Papaver rhoeas in wheat", "conditions": "in Triticum aesti, 12 DAA", "description": "(§3) Studies were conducted to compare the weed controlling activity of the combination of bensulfuron methyl, metsulfuron methyl with herbicides selected from the classes of synthetic auxins, photosystem II inhibitors, very long chain fatty acid inhibitor, carotene biosynthesis inhibitor and compare its observed efficacy with the “expected” efficacy when bensulfuron methyl and metsulfuron methyl and select individual herbicides were used to treat both dicotyledonous and monocotyledonous weeds. Any difference between the observed and “expected” efficacy could be attributed to synergy between the two compounds in the control of […] weeds. The expected efficacy of a combination of bensulfuron methyl, metsulfuron methyl with herbicides selected from the classes of synthetic auxins, photosystem II inhibitors, very long chain fatty acid inhibitor, carotene biosynthesis inhibitor was calculated using the well-established Colby method.\nas §1, with “effective. (Colby, S. R., Weeds, 1967(15), p. 20-22) The Colby method requires only a single dose of each herbicide applied alone and the mixture of both doses. The formula used to calculate the expected efficacy (EE) which was compared with the observed efficacy (OE) to determine the efficacy of the present invention is explained hereinbelow: EE=(B efficacy+A efficacy−(B efficacy×A efficacy)/100)” for “effective.”\nThe weed control activity of the individual herbicides of the invention and their combinations were evaluated on weeds such as Viola arvensis (weed code—VIOAR), Veronica persica (weed code—VERPE), Papaver rhoeas (weed code: PAPRH), Galium aparine (weed code—GALAP), Matricaria recutita weed code—MATCH), Veronica hederifolia (weed code—VERHE) and Viola arvensis (weed code—VIOAR.). The trial was carried out in Randomized Complete Block (RCB) method, all field trials were conducted using this method. Each trial were replicated four times and conducted under GEP guidelines. Application volumes were varied for each mixture. Such field trials were carried out at various locations so as to generate independent data, the locations were chosen randomly across European nations. Bensulfuron methyl and Metsulfuron methyl and selected herbicides were sprayed according to their recommended dosage.\nFurther field trials were carried out to test the synergy of the combination bensulfuron methyl, metsulfuron methyl and synthetic auxin fluroxypyr. The field trials were carried out at various locations in Europe during spring. […] The target weed was Papaver rhoeas (weed code—PAPRH) and the results are recorded in the table below:\nField trials were carried out test the synergy of the combination bensulfuron methyl, metsulfuron methyl, and synthetic auxin 2,4-D. The field trials were carried out at various locations in Europe during spring. […] The target weed were Senecio vulgaris (weed code—SENVU), Rapistrum rugosum (weed code—RASRU), Papaver rhoeas (weed code—PAPRH), Viola arvensis (Weed code—VIOAR), Roemeria hybrida (Weed code—is ROEHY), Galium aparine (Weed code—GALAP) and the results are recorded in the tables 3 and 4 below: […]"}, "[4]": {"system": "Rapistrum rugosum (weed code—RASRU)", "assay": "Field trial, weed control of Rapistrum rugosum in wheat", "conditions": "in Triticum aesti", "description": "as §3\nas §1, with “If the observed response of the combination is greater than the expected (or predicted) response, or stated conversely, if the difference between the observed and expected response is greater than zero, then the combination is said to be synergistic or unexpectedly effective.” left out\n(§4) The weed control activity of the individual herbicides of the invention and their combinations were evaluated on weeds such as Viola arvensis (weed code—VIOAR), Veronica persica (weed code—VERPE), Papaver rhoeas (weed code: PAPRH), Galium aparine (weed code—GALAP), Matricaria recutita weed code—MATCH), Veronica hederifolia (weed code—VERHE) and Viola arvensis (weed code—VIOAR.). […]"}, "[5]": {"system": "Viola arvensis (weed code—VIOAR)", "assay": "Field trial, weed control of Viola arvensis in wheat", "conditions": "in Triticum aesti", "description": "as §3\nas §1, with “If the observed response of the combination is greater than the expected (or predicted) response, or stated conversely, if the difference between the observed and expected response is greater than zero, then the combination is said to be synergistic or unexpectedly effective.” left out\nas §4"}, "[6]": {"system": "Veronica persica (weed code—VERPE)", "assay": "Field trial, weed control of Veronica persica in wheat", "conditions": "in Triticum aesti, dose 50 g + 4 g (bensulfuron methyl + metsulfuron methyl), 125 g (fluroxypyr), 50 g + 4 g + 125 g (mix)", "description": "as §3\n(§5) In the Colby method, the expected (or predicted) response of a combination of herbicides is calculated by taking the product of the observed response for each individual component of the combination when applied alone divided by 100 and subtracting this value from the sum of the observed response for each component when applied alone. […]"}, "[7]": {"system": "Senecio vulgaris (weed code—SENVU)", "assay": "Field trial, weed control of Senecio vulgaris in wheat", "conditions": "in Triticum aesti, 9 DAA; dose 0.1 Kg/ha (bensulfuron methyl + metsulfuron methyl), 2.6 l/ha (2,4D dimethylamine salt), 2.6 l/ha + 0.1 Kg/ha (mix)", "description": "as §3, §5"}, "[8]": {"system": "Roemeria hybrida (Weed code—is ROEHY)", "assay": "Field trial, weed control of Roemeria hybrida in wheat", "conditions": "in Triticum aesti, 15 DAA; dose 0.1 Kg/ha (bensulfuron methyl + metsulfuron methyl), 2.6 l/ha (2,4D dimethylamine salt), 0.1 Kg/ha + 2.6 l/ha (mix)", "description": "as §3, §5"}, "[9]": {"conditions": "Table 2, PAPRH, dose bensulfuron methyl 50 g, metsulfuron methyl 4 g, fluroxypyr 125 g, mix 50 g + 4 g + 125 g"}, "[10]": {"conditions": "Table 2, second PAPRH column pair, dose bensulfuron methyl 50 g, metsulfuron methyl 4 g, fluroxypyr 125 g, mix 50 g + 4 g + 125 g"}}, "note": "Counter-ions that a name gives are not always drawn."}
{"compound": "O=C(Nc1ccc(F)cc1F)c1cccnc1Oc1cccc(C(F)(F)F)c1", "note": "[Diflufenican, 2′,4′-difluoro-2-(α,α,α-trifluoro-m-tolyloxy)nicotinanilide]", "values": [{"measurement": "% Weed control TTTTT, Actual", "setting": "[1]; Table 6, first column pair, 0.12 g (diflufenican), 50 g + 4 g + 0.12 g (mix)", "value": 11.7, "unit": "%"}, {"measurement": "% Weed control TTTTT, Actual", "setting": "[1]; Table 6, second column pair, 0.16 g (diflufenican), 50 g + 4 g + 0.16 g (mix)", "value": 3.0, "unit": "%"}, {"measurement": "% Weed control TTTT, Actual", "setting": "[1]; Table 6, third column pair, 12 DAA T, 0.16 g (diflufenican), 50 g + 4 g + 0.16 g (mix)", "value": 15, "unit": "%"}, {"measurement": "% Weed control GALAP, Actual", "setting": "[2]; Table 7, first column pair, 0.05 g (diflufenican), 0.08 g + 0.05 g (mix)", "value": 13, "unit": "%"}, {"measurement": "% Weed control GALAP, Actual", "setting": "[2]; Table 7, second column pair, 0.08 g (diflufenican), 0.08 g + 0.08 g (mix)", "value": 20, "unit": "%"}]}
{"compound": "Cc1cc(Cl)ccc1OCC(=O)O", "note": "[MCPA dimethylamine salt, 4-chloro-2-methylphenoxy acetic acid]", "values": [{"measurement": "% Weed control PAPRH, Actual", "setting": "[3]; Table 5, dose 0.1 kg/ha A (bensulfuron methyl + metsulfuron methyl), 4 l/ha (MCPA dimethylamine salt), 0.1 kg/ha A + 4 l/ha (mix)", "value": 63.8, "unit": "%"}, {"measurement": "% Weed control RASRU, Actual", "setting": "[4]; Table 5, 12 DAA, dose 0.1 kg/ha A (bensulfuron methyl + metsulfuron methyl), 4 l/ha (MCPA dimethylamine salt), 0.1 kg/ha A + 4 l/ha (mix)", "value": 34.8, "unit": "%"}, {"measurement": "% Weed control RASRU, Actual", "setting": "[4]; Table 5, 56 DAA, dose 0.1 kg/ha A (bensulfuron methyl + metsulfuron methyl), 4 l/ha (MCPA dimethylamine salt), 0.1 kg/ha A + 4 l/ha (mix)", "value": 88.3, "unit": "%"}]}
{"compound": "Nc1c(Cl)c(F)nc(OCC(=O)O)c1Cl", "note": "[Fluroxypyr, 4-amino-3,5-dichloro-6-fluoro-2-pyridyloxyacetic acid]", "values": [{"measurement": "% Weed control VIOAR, Actual", "setting": "[5]; 20 DAA, dose 50 g + 4 g (bensulfuron methyl + metsulfuron methyl), 125 g (fluroxypyr), 50 g + 4 g + 125 g (mix)", "value": 31, "unit": "%"}, {"measurement": "% Weed control VIOAR, Actual", "setting": "[5]; 57 DAA, dose 50 g + 4 g (bensulfuron methyl + metsulfuron methyl), 125 g (fluroxypyr), 50 g + 4 g + 125 g (mix)", "value": 28, "unit": "%"}, {"measurement": "% Weed control PAPRH, Actual", "setting": "[3]; [9]", "value": 28, "unit": "%"}, {"measurement": "% Weed control PAPRH, Actual", "setting": "[3]; [10]", "value": 79, "unit": "%"}, {"measurement": "% Weed control VERPE, Actual", "setting": "[6]; 20 DAA", "value": 51, "unit": "%"}, {"measurement": "% Weed control VERPE, Actual", "setting": "[6]; 57 DAA", "value": 55, "unit": "%"}]}
{"compound": "COC(=O)c1ccccc1S(=O)(=O)NC(=O)Nc1nc(C)nc(OC)n1", "note": "[Metsulfuron methyl, methyl 2-(4-methoxy-6-methyl-1,3,5-triazin-2-ylcarbamoylsulfamoyl)benzoate]", "values": [{"measurement": "% Weed control PAPRH, Actual", "setting": "[3]; [9]", "value": 48, "unit": "%"}, {"measurement": "% Weed control PAPRH, Actual", "setting": "[3]; [10]", "value": 48.8, "unit": "%"}]}
{"compound": "COC(=O)c1ccccc1CS(=O)(=O)NC(=O)Nc1nc(OC)cc(OC)n1", "note": "[Bensulfuron methyl, methyl α-[(4,6-dimethoxypyrimidin-2-ylcarbamoyl)sulfamoyl]-o-toluate]", "values": [{"measurement": "% Weed control PAPRH, Actual", "setting": "[3]; [9]", "value": 50, "unit": "%"}, {"measurement": "% Weed control PAPRH, Actual", "setting": "[3]; [10]", "value": 50, "unit": "%"}]}
{"compound": "O=C(O)COc1ccc(Cl)cc1Cl", "note": "[2,4D dimethylamine salt, 2,4-Dichlorophenoxy acetic acid]", "values": [{"measurement": "% Weed control VIOAR, Actual", "setting": "[5]; Table 4, 12 DAA, dose 0.1 Kg/ha (bensulfuron methyl + metsulfuron methyl), 2.6 l/ha (2,4D dimethylamine salt), 0.1 Kg/ha + 2.6 l/ha (mix)", "value": 18.8, "unit": "%"}, {"measurement": "% Weed control SENVU, Actual", "setting": "[7]", "value": 62.5, "unit": "%"}, {"measurement": "% Weed control PAPRH, Actual", "setting": "[3]; Table 3, dose 0.1 Kg/ha (bensulfuron methyl + metsulfuron methyl), 2.6 l/ha (2,4D dimethylamine salt), 2.6 l/ha + 0.1 Kg/ha (mix)", "value": 37.5, "unit": "%"}, {"measurement": "% Weed control ROEHY, Actual", "setting": "[8]", "value": 37.5, "unit": "%"}, {"measurement": "% Weed control RASRU, Actual", "setting": "[4]; Table 3, 12 DAA, dose 0.1 Kg/ha (bensulfuron methyl + metsulfuron methyl), 2.6 l/ha (2,4D dimethylamine salt), 2.6 l/ha + 0.1 Kg/ha (mix)", "value": 32.4, "unit": "%"}]}
